Measured values taken from PMC10122656, “Siglec-6 mediates the uptake of extracellular vesicles through a noncanonical glycolipid binding pocket” (Nature Communications, 2023).
Where “and” joins values, the source holds several entries; their conditions need not be identical. Identical values can stand only once.

Legend:
Experiment in all cases: Ganglioside ELISA
Type in all cases: binding
Siglec-6-Fc WT = biological target: T1, Siglec-6-Fc WT (Homo sapiens, UniProt O43699); details: for ganglioside ELISA signal, Siglec-6 WT: Figure 2c, replicates; for ELISA recognition of adsorbed ganglioside by Siglec-6 (in words): ganglioside adsorbed to microplate, outside a bilayer
T1 construct: the Siglecs as Fc chimeras; made in house; host or cells: WT CHO cells
T1 sequence (O43699 27-347 limits assumed): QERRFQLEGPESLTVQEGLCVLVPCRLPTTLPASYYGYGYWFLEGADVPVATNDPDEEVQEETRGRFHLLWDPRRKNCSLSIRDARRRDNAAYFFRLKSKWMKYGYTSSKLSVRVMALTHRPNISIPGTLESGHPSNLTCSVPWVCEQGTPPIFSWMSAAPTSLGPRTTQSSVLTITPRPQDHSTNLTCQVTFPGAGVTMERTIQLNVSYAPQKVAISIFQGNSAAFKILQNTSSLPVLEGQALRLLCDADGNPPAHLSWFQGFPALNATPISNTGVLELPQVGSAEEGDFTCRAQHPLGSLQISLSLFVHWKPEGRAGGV
Experimental: (§1) Siglec-Fc constructs designed by Rodrigues et al.[30] were used in this work. Siglec-Fc constructs were expressed using WT CHO cells in cell culture media as described above with 1% HEPES. Cells incubated as described above for one-week post confluency. The supernatant was harvested and stored at 4 °C.
(§2) The purification was heavily inspired by Rodrigues et al.[30]. The purification of the Siglec-Fcs from supernatant began with Ni^2+ affinity chromatography using an AKTA FPLC equipped with a HisTrap Excel column (GE). The column was equilibrated with fifteen column volumes (CVs) of equilibrium buffer (500 mM NaCl, 20 mM NaPO4H2, pH 7.4). The Siglec-Fc containing supernatant was then loaded in its entirety onto the column. The column was then washed with fifteen CVs of wash buffer (500 mM NaCl, 30 mM imidazole, 20 mM NaPO4H2, pH 7.4). The Siglec-Fc was then eluted in 20 in 1 mL fractions with twenty CVs of elution buffer (500 mM NaCl, 500 mM imidazole, 20 mM NaPO4H2, pH 7.4). Fractions containing Siglec-Fc were compiled and then prepared for the next stage of purification by diluting the fractions 1:4 with buffer W (100 mM Tris–HCl, 150 mM NaCl, 1 mM EDTA, pH 8.0). A Strep-Tactin column (IBA life sciences) was washed with fifteen CVs of buffer W. The Siglec-Fc-buffer W solution was then loaded in its entirety onto the column. The bound Siglec-Fc was then washed with fifteen CVs of buffer W. Siglec-Fc was eluted from the column with 15 column volumes of buffer E (100 mM Tris–HCl, 150 mM NaCl, 1 mM EDTA, 10 mM d-Desthiobiotin, pH 8.0). Fractions containing Siglec-Fc were pooled and dialyzed against PBS to remove any d-Desthiobiotin. After dialysis, Siglec-Fcs were concentrated using an ultra-centrifugal device (30 kDa MWCO) and aliquoted into 5 µg aliquots, and frozen. The Siglec-Fcs were then lyophilized overnight, and the lyophilized Siglec-Fcs were stored at −20 °C.
(§3) Our ELISA approach was carried out similarly to previous work by Rapoport[12] and Yamakawa[44]. Ganglioside ethanol solutions (10 µM) were prepared and then transferred in 50 µL increments to a 96-well microplate. The ethanol was removed by drying the plates overnight at room temperature. The plates were then washed with PBS, dried, and then blocked with 5% (m/V) BSA PBS for 1 h. The plates were then washed with PBS and then 2 µg/mL Siglec-Fc precomplexed to Strep-Tactin (2 Siglec-Fc:1 Strep-Tactin monomer) horse radish peroxidase was added to the microplate. The complex was incubated with the plate at room temperature for 2 h. The unbound complexes were then removed by washing in PBS and the plate was developed with Sera care TMB solution. The amount of binding was then quantified by using the background (microplate well with no ligand) subtracted absorbance at 450 nm using a Molecular Devices SpectraMAX ® iD5.

Siglec-1-Fc WT = Siglec-1-Fc WT (Homo sapiens, UniProt Q9BZZ2); details: Figure 2c, replicates
Sequence of Siglec-1-Fc WT (Q9BZZ2 20-136 limits assumed): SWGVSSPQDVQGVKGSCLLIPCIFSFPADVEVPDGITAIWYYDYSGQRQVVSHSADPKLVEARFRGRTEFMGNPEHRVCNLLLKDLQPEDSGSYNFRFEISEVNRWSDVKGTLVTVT
Experimental: as §1, §2, §3

Siglec-7-Fc WT = biological target: T2, Siglec-7-Fc WT (Homo sapiens, UniProt Q9Y286); details: Figure 2c, replicates
T2 construct: the Siglecs as Fc chimeras; made in house; host or cells: WT CHO cells
T2 sequence (Q9Y286 19-353 limits assumed): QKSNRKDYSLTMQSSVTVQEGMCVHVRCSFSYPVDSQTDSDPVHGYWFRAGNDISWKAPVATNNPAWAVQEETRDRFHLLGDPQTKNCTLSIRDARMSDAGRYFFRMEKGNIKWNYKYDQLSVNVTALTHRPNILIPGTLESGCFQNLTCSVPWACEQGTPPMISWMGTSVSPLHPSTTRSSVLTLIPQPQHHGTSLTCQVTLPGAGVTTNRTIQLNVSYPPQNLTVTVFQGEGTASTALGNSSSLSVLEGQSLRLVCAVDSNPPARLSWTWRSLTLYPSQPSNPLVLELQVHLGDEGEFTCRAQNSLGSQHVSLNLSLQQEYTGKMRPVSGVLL
Experimental: as §1, §2, §3

R122A Siglec-6-Fc = biological target: T3, R122A Siglec-6-Fc (Homo sapiens, UniProt O43699, R122A); details: Figure 2c, replicates
T3 construct: the Siglecs as Fc chimeras; made in house; host or cells: WT CHO cells
T3 sequence (O43699 27-347 R122A limits assumed): as the sequence (O43699 27-347 limits assumed) above, with R96A counted along it
Experimental: as §1, §2, §3

Siglec-7-Fc R124A = biological target: T4, Siglec-7-Fc R124A (Homo sapiens, UniProt Q9Y286, R124A); details: Figure 2c, replicates
T4 construct: the Siglecs as Fc chimeras; made in house; host or cells: WT CHO cells
T4 sequence (Q9Y286 19-353 R124A limits assumed): as the sequence (Q9Y286 19-353 limits assumed) above, with R106A counted along it
Experimental: as §1, §2, §3

| Molecule | ganglioside ELISA signal, Siglec-6 WT (Siglec-6-Fc WT) | ELISA recognition of adsorbed ganglioside by Siglec-6 (in words) (Siglec-6-Fc WT) | ganglioside ELISA signal, Siglec-1 WT (Siglec-1-Fc WT) | ganglioside ELISA signal, Siglec-7 WT (Siglec-7-Fc WT) | ganglioside ELISA signal, Siglec-6 R (R122A Siglec-6-Fc) | ganglioside ELISA signal, Siglec-7 R (Siglec-7-Fc R124A) | fold difference in binding to Siglec-6 between 5 and GM3 (Siglec-6-Fc WT; by ELISA) [fold] |
| --- | --- | --- | --- | --- | --- | --- | --- |
| GD1a | -0.08 and 0.02 and 0.01 and -0.06 | did not recognize | 0.75 and 1.01 and 0.87 | 0.27 and 0.32 and 0.24 and 0.37 | 0.08 and 0.06 and 0.05 | 0.05 and 0 and -0.01 | – |
| GM4 | 0.22 and 0.25 and 0.27 and 0.23 | interacted weakly | 0.62 and 0.66 and 0.72 and 0.59 | 0.52 and 0.45 and 0.53 and 0.58 | 0.26 and 0.23 and 0.24 and 0.28 | -0.01 and 0 and -0.02 | – |
| CCCCCCCCCCCCCCCCOCC(COCCCCCCCCCCCCCCCC)OCc1cn(CCO[C@@H]2O[C@H](CO)[C@@H](O[C@@H]3O[C@H](CO)[C@H](O)[C@H](O[C@]4(C(=O)O)C[C@H](O)[C@@H](NC(C)=O)[C@H]([C@H](O)[C@H](O)CO)O4)[C@H]3O)[C@H](O)[C@H]2O)nn1 [nGL 5] | – | – | – | – | – | – | 1.5 |
| GM3 | 0.27 and 0.3 and 0.26 | interacted weakly | 0.99 and 1.04 and 1.15 and 1.05 | 0.61 and 0.6 and 0.68 and 0.7 | 0.34 and 0.37 and 0.41 and 0.4 | -0.02 and 0 | – |
| GQ1b | -0.1 and -0.02 and -0.09 and -0.12 | did not recognize | 0.15 and 0.21 and 0.24 and 0.23 | 0.66 and 0.63 and 0.69 | 0.11 and 0.1 and 0.13 and 0.12 | -0.01 and 0 | – |
| GT1b | -0.04 and -0.01 and -0.09 and -0.11 | did not recognize | 0.25 and 0.3 and 0.43 and 0.46 | 0.49 and 0.55 and 0.5 | 0.11 and 0.08 and 0.1 and 0.13 | -0.01 and -0.02 | – |
| GD1b | -0.04 and 0.01 | – | 0.52 and 0.66 and 0.64 and 0.62 | 0.41 and 0.39 and 0.38 | 0.07 and 0.09 and 0.06 and 0.08 | 0 and -0.01 and -0.02 | – |
| GM1 | -0.03 and -0.04 and -0.05 and -0.02 | did not recognize | 0.39 and 0.55 and 0.5 and 0.54 | 0.04 and 0.05 and 0.01 and 0.03 | 0.02 and 0.03 | 0 and -0.01 and 0.03 | – |
| GM2 | 0 and 0.04 and 0.02 and 0.03 | – | 0.89 and 1.09 and 1.03 and 1.06 | 0.12 and 0.09 and 0.1 and 0.06 | 0.04 and 0.05 and 0.06 and 0.07 | -0.01 and 0 and -0.02 | – |
| GD3 | 0.04 and 0.09 and 0.03 | did not recognize | 0.76 and 0.85 and 0.8 and 0.82 | 0.74 and 0.73 and 0.7 and 0.66 | 0.22 and 0.2 | 0.01 and -0.01 and -0.02 | – |
